Source: BindingDB's records for doi:10.1016/j.bmcl.2006.08.060 (Lucknow University, 2006)

System: Enterococcus faecalis
Assay: Antibacterial activity against Streptococcus faecalis by broth microdilution technique

IC50: 445 nM
SMILES: CNC(C)[C@@H]1CC[C@@H](N)[C@@H](O[C@H]2[C@H](O)[C@@H](O[C@H]3OC[C@](C)(O)[C@H](NC)[C@H]3O)[C@H](N)C[C@@H]2N)O1 (stereo partly specified) [Gentamicin]
